Test results as given in article PMC4739778 (Experimental hematology, 2011).
Where two headings read alike, the source gives them in different places.

Tests used:
[1] = target: T1, UTB (Homo sapiens, UniProt Q13336); assay: Transcellular transport assay in LLC-PK1 cells overexpressing UTB; format: cell-based; conditions: 1mM dimethylurea
T1 sequence (Q13336 1-389): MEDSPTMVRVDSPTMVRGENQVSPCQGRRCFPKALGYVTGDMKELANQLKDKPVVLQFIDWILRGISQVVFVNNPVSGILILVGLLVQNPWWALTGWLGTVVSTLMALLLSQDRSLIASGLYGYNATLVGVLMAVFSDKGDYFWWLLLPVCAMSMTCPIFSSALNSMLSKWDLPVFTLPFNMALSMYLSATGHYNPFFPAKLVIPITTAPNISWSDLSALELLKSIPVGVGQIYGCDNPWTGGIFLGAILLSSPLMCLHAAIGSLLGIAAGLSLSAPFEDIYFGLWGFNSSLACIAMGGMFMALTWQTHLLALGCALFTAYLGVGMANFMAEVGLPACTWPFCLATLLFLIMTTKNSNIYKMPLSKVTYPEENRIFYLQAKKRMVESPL

[2] = target: T2, hOATP1B3 (Homo sapiens, UniProt Q9NPD5); assay: Inhibition of OATP1B3-mediated hydroxyurea accumulation in oocytes; format: cell-based; conditions: for Hydroxyurea accumulation in OATP1B3 oocytes, % of accumulation without inhibitor: 1mM inhibitor co-incubation, in 1% DMSO
T2 sequence (Q9NPD5 1-702): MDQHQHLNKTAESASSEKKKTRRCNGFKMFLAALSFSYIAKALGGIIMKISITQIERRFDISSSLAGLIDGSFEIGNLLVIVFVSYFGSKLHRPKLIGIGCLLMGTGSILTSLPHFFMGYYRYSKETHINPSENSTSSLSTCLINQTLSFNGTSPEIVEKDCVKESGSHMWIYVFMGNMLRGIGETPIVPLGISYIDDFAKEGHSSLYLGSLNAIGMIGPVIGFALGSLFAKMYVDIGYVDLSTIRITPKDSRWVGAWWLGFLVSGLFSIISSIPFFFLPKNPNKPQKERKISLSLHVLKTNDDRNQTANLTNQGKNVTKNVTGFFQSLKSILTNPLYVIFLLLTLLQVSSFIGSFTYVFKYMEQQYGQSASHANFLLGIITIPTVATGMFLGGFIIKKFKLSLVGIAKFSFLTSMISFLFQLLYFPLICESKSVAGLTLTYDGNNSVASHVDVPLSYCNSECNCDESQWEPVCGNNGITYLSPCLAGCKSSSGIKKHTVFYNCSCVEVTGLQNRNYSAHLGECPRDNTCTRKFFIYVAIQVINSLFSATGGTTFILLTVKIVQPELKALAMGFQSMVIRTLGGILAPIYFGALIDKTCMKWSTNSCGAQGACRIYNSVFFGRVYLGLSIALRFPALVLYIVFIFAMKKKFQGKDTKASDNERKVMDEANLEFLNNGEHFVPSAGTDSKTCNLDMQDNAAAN

[3] = PAMPA
[4] = Parallel artificial membrane permeability assay; conditions: 4% lipid bilayer; 16-hours incubation at room temperature
[5] = target: T3, human OCTN1 (Homo sapiens, UniProt Q9H015); assay: Hydroxyurea uptake in HEK293 cells overexpressing hOCTN1; format: cell-based; conditions: percentage of control cells (100%)
T3 sequence (Q9H015 1-551): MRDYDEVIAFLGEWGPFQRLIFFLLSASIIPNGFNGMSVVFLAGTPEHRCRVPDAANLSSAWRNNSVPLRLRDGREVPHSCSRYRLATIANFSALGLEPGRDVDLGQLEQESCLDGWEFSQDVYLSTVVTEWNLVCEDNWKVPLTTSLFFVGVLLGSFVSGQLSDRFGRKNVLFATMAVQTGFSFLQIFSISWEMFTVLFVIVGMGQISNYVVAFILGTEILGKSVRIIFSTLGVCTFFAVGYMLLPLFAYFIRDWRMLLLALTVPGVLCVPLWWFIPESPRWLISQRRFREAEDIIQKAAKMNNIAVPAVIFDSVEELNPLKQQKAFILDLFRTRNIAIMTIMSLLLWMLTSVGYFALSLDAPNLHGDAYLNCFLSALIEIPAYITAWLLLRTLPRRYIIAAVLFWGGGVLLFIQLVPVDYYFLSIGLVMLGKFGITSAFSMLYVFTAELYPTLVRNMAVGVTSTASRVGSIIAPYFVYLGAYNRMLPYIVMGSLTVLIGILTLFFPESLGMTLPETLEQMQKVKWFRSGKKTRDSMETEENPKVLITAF

[6] = target: T4, human OCTN2 (Homo sapiens, UniProt O76082); assay: Hydroxyurea uptake in HEK293 cells overexpressing hOCTN2; format: cell-based; conditions: percentage of control cells (100%)
T4 sequence (O76082 1-557): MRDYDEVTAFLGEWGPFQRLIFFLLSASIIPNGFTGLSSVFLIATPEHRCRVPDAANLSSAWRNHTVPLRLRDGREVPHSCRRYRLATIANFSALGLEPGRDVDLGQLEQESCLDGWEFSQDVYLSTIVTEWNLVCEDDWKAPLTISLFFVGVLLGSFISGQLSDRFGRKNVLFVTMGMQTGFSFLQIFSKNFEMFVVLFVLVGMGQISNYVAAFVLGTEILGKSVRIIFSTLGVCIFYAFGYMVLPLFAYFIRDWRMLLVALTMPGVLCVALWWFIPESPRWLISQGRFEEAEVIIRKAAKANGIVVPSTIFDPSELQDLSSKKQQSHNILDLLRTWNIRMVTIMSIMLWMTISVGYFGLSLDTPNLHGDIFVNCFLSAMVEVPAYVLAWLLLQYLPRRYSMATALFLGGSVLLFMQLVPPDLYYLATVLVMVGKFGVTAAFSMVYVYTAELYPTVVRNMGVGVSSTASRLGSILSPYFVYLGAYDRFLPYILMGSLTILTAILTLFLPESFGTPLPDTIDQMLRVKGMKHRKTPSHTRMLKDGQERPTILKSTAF

[7] = humans, oral; cited from earlier work

For dimethylurea, the “effect on hydroxyurea transport” value [1] was “marginally inhibited”.

For `CN(Cc1cnc2nc(N)nc(N)c2n1)c1ccc(C(=O)N[C@@H](CCC(=O)O)C(=O)O)cc1` [methotrexate], the “lowering of hydroxyurea accumulation in OATP1B3 oocytes” value ([2]; 1mM co-incubation in the absence of DMSO) was 50% and the “10 + logPe” value ([3]; 16 h) was 2.022.

For `C[C@@H]1O[C@@H](O[C@H]2[C@H](Oc3cc(O)c4c(c3)O[C@H](c3ccc(O)cc3)CC4=O)O[C@H](CO)[C@@H](O)[C@@H]2O)[C@H](O)[C@H](O)[C@H]1O` [naringin], the “Hydroxyurea accumulation in OATP1B3 oocytes, % of accumulation without inhibitor” value [2] was 30%.

For `CO[C@H]1/C=C/O[C@@]2(C)Oc3c(C)c(O)c4c(O)c(c(/C=N/N5CCN(C)CC5)c(O)c4c3C2=O)NC(=O)/C(C)=C\C=C\[C@H](C)[C@H](O)[C@@H](C)[C@@H](O)[C@@H](C)[C@H](OC(C)=O)[C@@H]1C` [rifampin], the “Hydroxyurea accumulation in OATP1B3 oocytes, % of accumulation without inhibitor” value [2] was 30%.

With `Cc1ncc2n1-c1ccc(Cl)cc1C(c1ccccc1F)=NC2` [midazolam] the “10 + logPe” value [4] was 4.707.

For `NC(N)=O` [urea], the “10 + logPe” value [3] was 2.712 and the “estimated permeability rate (log Pe + 10)” value [3] was 2.335.

In the case of `NC(=O)NO` [hydroxyurea], the “hydroxyurea uptake compared to controls” value [5] is reported as 130%, the “hydroxyurea uptake compared to controls” value [6] is reported as 113% and the “10 + logPe” value [3] is reported as 2.597. The “estimated permeability rate (log Pe + 10)” value [3] was 2.385, the Tmax [7] was 1.22 h and the bioavailability [7] was “nearly complete”.
